Results as given in patent US20100104550A1 (priority 2006, published 2010).

Key:
BiP = type: cell-based, African green monkey
CHOP = type: cell-based, murine
GRP78/BiP = GRP78/BiP (Homo sapiens, UniProt P11021); type: cell-based
bovine BiP = bovine BiP (Bos taurus, UniProt Q0VCX2); type: biochemical

Sequence of GRP78/BiP (P11021 19-654): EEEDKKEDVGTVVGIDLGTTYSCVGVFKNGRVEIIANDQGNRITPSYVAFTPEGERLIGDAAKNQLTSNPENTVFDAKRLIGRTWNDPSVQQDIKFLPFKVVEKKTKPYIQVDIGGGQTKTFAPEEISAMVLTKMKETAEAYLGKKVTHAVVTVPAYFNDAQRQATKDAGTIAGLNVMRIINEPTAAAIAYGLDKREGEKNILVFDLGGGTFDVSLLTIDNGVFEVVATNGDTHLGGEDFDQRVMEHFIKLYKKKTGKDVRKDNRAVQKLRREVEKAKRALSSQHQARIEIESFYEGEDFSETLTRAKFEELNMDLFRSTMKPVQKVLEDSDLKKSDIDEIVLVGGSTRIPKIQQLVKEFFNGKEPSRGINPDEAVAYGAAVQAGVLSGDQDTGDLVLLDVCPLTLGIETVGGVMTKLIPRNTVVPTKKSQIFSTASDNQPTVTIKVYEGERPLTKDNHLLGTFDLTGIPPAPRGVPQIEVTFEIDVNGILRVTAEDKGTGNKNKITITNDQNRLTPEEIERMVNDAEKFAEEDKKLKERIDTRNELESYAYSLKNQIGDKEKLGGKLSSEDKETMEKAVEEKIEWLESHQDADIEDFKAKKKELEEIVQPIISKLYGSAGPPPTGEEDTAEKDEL

## C[C@H]1CCC/C=C/[C@@H]2C[C@H](O)C[C@H]2[C@H](O)/C=C/C(=O)O1 [brefeldin A]
BiP
  effect on SubAB cleavage of 72-kDa BiP: completely blocked

## C/C=C(/C)C(=O)O[C@H]1C(C)=C2[C@H]([C@@H]1OC(=O)CCCCCCC)[C@@](C)(OC(C)=O)C[C@H](OC(=O)CCC)[C@@]1(O)[C@H]2OC(=O)[C@@]1(C)O [thapsigargin, reference compound]
CHOP
  CHOP induction in N2A cells: evident
GRP78/BiP
  expression of BiP: enhanced expression of BiP

## SubB: B subunit of subtilase cytotoxin, 13 kDa, binds target cells and transports SubA intracellularly
Bovine BiP
  cleavage of purified bovine BiP: not cleaved

## tunicamycin
CHOP
  CHOP induction in N2A cells: evident
